Structures can show the parent of a compound that is named as a salt.

The first assay deals with KMS.12.BM cells. Put plainly: KMS.12.BM Cell Viability Assay (Example B1). It is filed as cell-based, human. The conditions noted are these: Homo sapiens, 72 h, 3 days, Cell Titer-GLO, read-out: KMS cellular IC50. The method, then: KMS.12.BM cell line (human myeloma) was purchased from JCRB (Osaka, Japan) and maintained in RPMI with 10% FBS culture medium. To measure the cytotoxic activity of the compounds through ATP quantitation, the KMS.12.BM cells are plated in the RPMI culture medium at 5000 cells/well/per 100 μL into a 96-well polystyrene clear black tissue culture plate (Greiner-bio-one through VWR, NJ), in the presence or absence of a concentration range of test compounds. After 3 days, […] Cell Titer-GLO Luminescent (Promega, Madison, Wis.) cell culture agent is added to each well for 10 min. at room temperature to stabilize the luminescent signal. This determines the number of viable cells in culture based on quantitation of the ATP present, which signals the presence of metabolically active cells.
For the compound `Cc1noc(C)c1-c1ccc2ncn3c2c1OCC3c1ccccc1` (stereo not drawn) [Example 39, 7-(3,5-Dimethylisoxazol-4-yl)-4-phenyl-4,5-dihydroimidazo[1,5,4-de][1,4]benzoxazine], the 50% inhibitory concentration (IC50) is below 1000 nM.

As for `Cc1noc(C)c1-c1ccc2nc(-c3ccccc3)n3c2c1OCC3c1ccccc1` (stereo not drawn) [Example 41, 7-(3,5-Dimethylisoxazol-4-yl)-2,4-diphenyl-4,5-dihydroimidazo[1,5,4-de][1,4]benzoxazine], the half-maximal inhibitory concentration (IC50) was below 1000 nM. Turning to `Cc1noc(C)c1-c1cc(C#N)c2[nH]c(=O)n3c2c1OCC3c1ccccc1` (stereo not drawn) [Example 42, 7-(3,5-Dimethylisoxazol-4-yl)-2-oxo-4-phenyl-1,2,4,5-tetrahydroimidazo[1,5,4-de][1,4]benzoxazine-9-carbonitrile], the half-inhibitory concentration (IC50) was below 1000 nM. Still for that read-out and setting: then `Cc1noc(C)c1-c1cc(-c2ccccc2)c2[nH]c(=O)n3c2c1OCC3c1ccccc1` (stereo not drawn) [Example 43, 7-(3,5-Dimethylisoxazol-4-yl)-4,9-diphenyl-4,5-dihydroimidazo[1,5,4-de][1,4]benzoxazin-2(1H)-one], with below 1000 nM; and `Cc1noc(C)c1-c1cc(Br)c2[nH]c(=O)n3c2c1OCC3c1ccccc1` (stereo not drawn) [Example 45, 9-Bromo-7-(3,5-Dimethylisoxazol-4-yl)-4-phenyl-4,5-dihydroimidazo[1,5,4-de][1,4]benzoxazin-2(1H)-one], with below 1000 nM. Still for that read-out and setting: for `Cc1noc(C)c1-c1cc(C)c2[nH]c(=O)n3c2c1OCC3c1ccccc1` (stereo not drawn) [Example 46, 7-(3,5-Dimethylisoxazol-4-yl)-9-methyl-4-phenyl-4,5-dihydroimidazo[1,5,4-de][1,4]benzoxazin-2(1H)-one] the value was below 1000 nM; for `Cc1noc(C)c1-c1ccc2[nH]c(=O)n3c2c1OCC3c1ccc(F)cc1` (stereo not drawn) [Example 49, 7-(3,5-Dimethylisoxazol-4-yl)-4-(4-fluorophenyl)-4,5-dihydroimidazo[1,5,4-de][1,4]benzoxazin-2(1H)-one], below 1000 nM. Turning to `Cc1noc(C)c1-c1ccc2[nH]c(=O)n3c2c1OCC3c1ccccc1OCC(=O)N(C)C` (stereo not drawn) [Example 51, 2-{2-[7-(3,5-Dimethylisoxazol-4-yl)-2-oxo-1,2,4,5-tetrahydroimidazo[1,5,4-de][1,4]benzoxazin-4-yl]phenoxy}-N,N-dimethylacetamide], the concentration for half-maximal inhibition (IC50) is below 1000 nM.

As to `Cc1noc(C)c1-c1cc(-c2cccnc2)c2[nH]c(=O)n3c2c1OCC3c1ccccc1` (stereo not drawn) [Example 52, 7-(3,5-Dimethylisoxazol-4-yl)-4-phenyl-9-pyridin-3-yl-4,5-dihydroimidazo[1,5,4-de][1,4]benzoxazin-2(1H)-one], the IC50 is below 1000 nM. The same measure, in the same setting: for `Cc1noc(C)c1-c1ccc2nc(N3CCOCC3)n3c2c1OCC3c1ccccc1` (stereo not drawn) [Example 53, 7-(3,5-Dimethylisoxazol-4-yl)-2-morpholin-4-yl-4-phenyl-4,5-dihydroimidazo[1,5,4-de][1,4]benzoxazine] the value was below 1000 nM. Still for that read-out and setting: for `Cc1noc(C)c1-c1ccc2nc(N3CCCC3)n3c2c1OCC3c1ccccc1` (stereo not drawn) [Example 54, 7-(3,5-Dimethylisoxazol-4-yl)-4-phenyl-2-pyrrolidin-1-yl-4,5-dihydroimidazo[1,5,4-de][1,4]benzoxazine] the value was below 1000 nM.

For `Cc1noc(C)c1-c1ccc2nc(N3CCC(O)C3)n3c2c1OCC3c1ccccc1` (stereo not drawn) [Example 55, 1-[7-(3,5-Dimethylisoxazol-4-yl)-4-phenyl-4,5-dihydroimidazo[1,5,4-de][1,4]benzoxazin-2-yl]pyrrolidin-3-ol], the 50% inhibitory concentration (IC50) was below 1000 nM. `Cc1noc(C)c1-c1ccc2nc(N3CCCCC3)n3c2c1OCC3c1ccccc1` (stereo not drawn) [Example 56, 7-(3,5-Dimethylisoxazol-4-yl)-4-phenyl-2-piperidin-1-yl-4,5-dihydroimidazo[1,5,4-de][1,4]benzoxazine]: the IC50 is below 1000 nM. Still for that read-out and setting: then `Cc1noc(C)c1-c1ccc2nc(N3CCC(O)CC3)n3c2c1OCC3c1ccccc1` (stereo not drawn) [Example 57, 1-[7-(3,5-Dimethylisoxazol-4-yl)-4-phenyl-4,5-dihydroimidazo[1,5,4-de][1,4]benzoxazin-2-yl]piperidin-4-ol], with below 1000 nM; and `Cc1noc(C)c1-c1ccc2nc(N3CCCC(O)C3)n3c2c1OCC3c1ccccc1` (stereo not drawn) [Example 58, 1-[7-(3,5-Dimethylisoxazol-4-yl)-4-phenyl-4,5-dihydroimidazo[1,5,4-de][1,4]benzoxazin-2-yl]piperidin-3-ol], with below 1000 nM; and `Cc1noc(C)c1-c1ccc2nc(N3CC(O)C3)n3c2c1OCC3c1ccccc1` (stereo not drawn) [Example 59], with below 1000 nM. Turning to `Cc1noc(C)c1-c1ccc2nc(N3CCN(C(=O)OC(C)(C)C)CC3)n3c2c1OCC3c1ccccc1` (stereo not drawn) [Example 60], the IC50 was below 1000 nM. On the same count and under the same terms, then `C=Cc1nc2ccc(-c3c(C)noc3C)c3c2n1[C@@H](c1ccccn1)CO3` [Example 88, (4S)-7-(3,5-Dimethylisoxazol-4-yl)-4-pyridin-2-yl-2-vinyl-4,5-dihydroimidazo[1,5,4-de][1,4]benzoxazine], with below 1000 nM; and `Cc1noc(C)c1-c1ccc2nc([C@@H](O)CO)n3c2c1OC[C@@H]3c1ccccn1` [Example 89, (1R)-1-[(4S)-7-(3,5-Dimethylisoxazol-4-yl)-4-pyridin-2-yl-4,5-dihydroimidazo[1,5,4-de][1,4]benzoxazin-2-yl]ethane-1,2-diol], with below 1000 nM. On to `Cc1noc(C)c1-c1ccc2nc(C(C)O)n3c2c1OC[C@@H]3c1ccccn1` (stereo partly drawn) [Example 90, 1-[(4S)-7-(3,5-Dimethylisoxazol-4-yl)-4-pyridin-2-yl-4,5-dihydroimidazo[1,5,4-de][1,4]benzoxazin-2-yl]ethanol], for which the half-inhibitory concentration (IC50) was below 1000 nM. Still for that read-out and setting: then `Cc1noc(C)c1-c1ccc2nc(C(=O)N(C)C)n3c2c1OC[C@@H]3c1ccccn1` [Example 91, (4S)-7-(3,5-Dimethylisoxazol-4-yl)-N,N-dimethyl-4-pyridin-2-yl-4,5-dihydroimidazo[1,5,4-de][1,4]benzoxazine-2-carboxamide], with below 1000 nM; and `Cc1noc(C)c1-c1ccc2ncn3c2c1OC[C@@H]3c1ccccn1` [Example 92, (4S)-7-(3,5-Dimethylisoxazol-4-yl)-4-pyridin-2-yl-4,5-dihydroimidazo[1,5,4-de][1,4]benzoxazine], with below 1000 nM; and `Cc1noc(C)c1-c1ccc2nc(C(=O)OC(C)(C)C)n3c2c1OC[C@@H]3c1ccccn1` [Example 93, tert-Butyl (4S)-7-(3,5-dimethylisoxazol-4-yl)-4-pyridin-2-yl-4,5-dihydroimidazo[1,5,4-de][1,4]benzoxazine-2-carboxylate], with below 1000 nM. As to `Cc1noc(C)c1-c1ccc2nc(C3=CCN(C(=O)OC(C)(C)C)CC3)n3c2c1OC[C@@H]3c1ccccn1` [Example 97, tert-Butyl 4-[(4S)-7-(3,5-dimethylisoxazol-4-yl)-4-pyridin-2-yl-4,5-dihydroimidazo[1,5,4-de][1,4]benzoxazin-2-yl]-3,6-dihydropyridine-1 (2H)-carboxylate], the IC50 is below 1000 nM. On the same count and under the same terms, for `Cc1noc(C)c1-c1ccc2nc(C3CCN(C(=O)OC(C)(C)C)CC3)n3c2c1OC[C@@H]3c1ccccn1` [Example 100, tert-Butyl 4-[(4S)-7-(3,5-dimethylisoxazol-4-yl)-4-pyridin-2-yl-4,5-dihydroimidazo[1,5,4-de][1,4]benzoxazin-2-yl]piperidine-1-carboxylate] the value was below 1000 nM. Turning to `Cc1noc(C)c1-c1ccc2nc(C3CCNCC3)n3c2c1OC[C@@H]3c1ccccn1` [Example 103], the IC50 was below 1000 nM. The same measure, in the same setting: for `Cc1noc(C)c1-c1ccc2nc(C3=CCNCC3)n3c2c1OC[C@@H]3c1ccccn1` [Example 104, (4S)-7-(3,5-dimethylisoxazol-4-yl)-4-pyridin-2-yl-2-(1,2,3,6-tetrahydropyridin-4-yl)-4,5-dihydroimidazo[1,5,4-de][1,4]benzoxazine] the value was below 1000 nM. Same read-out and setting: for `Cc1noc(C)c1-c1ccc2nc(C3CCN(C(=O)C4CC4)CC3)n3c2c1OC[C@@H]3c1ccccn1` [Example 111, (4S)-2-[1-(cyclopropylcarbonyl)piperidin-4-yl]-7-(3,5-dimethylisoxazol-4-yl)-4-pyridin-2-yl-4,5-dihydroimidazo[1,5,4-de][1,4]benzoxazine] the value was below 1000 nM; for `Cc1noc(C)c1-c1ccc2nc(C3CCN(S(C)(=O)=O)CC3)n3c2c1OC[C@@H]3c1ccccn1` [Example 112, (4S)-7-(3,5-dimethylisoxazol-4-yl)-2-[1-(methylsulfonyl)piperidin-4-yl]-4-pyridin-2-yl-4,5-dihydroimidazo[1,5,4-de][1,4]benzoxazine], below 1000 nM. Same read-out and setting: then `Cc1noc(C)c1-c1ccc2[nH]c(=O)n3c2c1CCC3c1ccccc1` (stereo not drawn) [Example 120, 7-(3,5-Dimethylisoxazol-4-yl)-4-phenyl-5,6-dihydro-4H-imidazo[4,5,1-ij]quinolin-2(1H)-one], with below 1000 nM; and `COn1c(=O)n2c3c(c(-c4c(C)noc4C)ccc31)CCC2c1ccccn1` (stereo not drawn) [Example 122, 7-(3,5-Dimethylisoxazol-4-yl)-1-methoxy-4-pyridin-2-yl-5,6-dihydro-4H-imidazo[4,5,1-ij]quinolin-2(1H)-one trifluoroacetate], with below 1000 nM. With `Cc1noc(C)c1-c1ccc2[nH]c(=O)n3c2c1CCC3c1ccccn1` (stereo not drawn) [Example 123, 7-(3,5-Dimethylisoxazol-4-yl)-4-pyridin-2-yl-5,6-dihydro-4H-imidazo[4,5,1-ij]quinolin-2(1H)-one trifluoroacetate], the IC50 is below 1000 nM.

The same assay, now with this note: Homo sapiens, KMS-12-BM, 72 h, 3 days, Cell Titer-GLO, read-out: KMS cellular IC50.
In the case of `Cc1noc(C)c1-c1ccc2nc(N3CCNCC3)n3c2c1OCC3c1ccccc1` (stereo not drawn) [Example 40, 7-(3,5-Dimethylisoxazol-4-yl)-4-phenyl-2-piperazin-1-yl-4,5-dihydroimidazo[1,5,4-de][1,4]benzoxazine], the IC50 is below 1000 nM.
